Patent US6391296B1 (priority 1997, dated 2002)

Experiments:
[1] = test system: recombinant Bombyx mori nuclear polyhedrosis viruses rBNVγ; type: cell-based, Bombyx mori nuclear polyhedrosis virus; conditions: pH 3.5
Escherichia coli TI41 = type: cell-based; conditions: Addition of 20 mg/l of thiaisoleucine, 30° C., 48 hours; no addition = 100
Escherichia coli TI139 = type: cell-based; conditions: Addition of 20 mg/l of thiaisoleucine, 30° C., 48 hours; no addition = 100
Escherichia coli JM101 = type: cell-based; conditions: Addition of 20 mg/l of thiaisoleucine, 30° C., 48 hours; no addition = 100

Molecule | Amount of infectious viruses [1] | Relative degree of growth (Escherichia coli TI41) [%] | Relative degree of growth (Escherichia coli TI139) [%] | Relative degree of growth (Escherichia coli JM101) [%]
CC(C)(C)CC(C)(C)c1ccc(OCCOCC[N+](C)(C)Cc2ccccc2)cc1 [benzethonium chloride] | Not detected | – | – | –
thiaisoleucine | – | 95.2 | 106.1 | 17.1
